Earlier results in US8968755B2, “Topical base and active agent-containing compositions, and methods for improving and treating skin” (priority 2010, dated 2015).

solubility in water: insoluble in water
Compound: CCCCCCCCCCCCCCCCCCO [Stearyl alcohol, 1-octadecanol]
